Patent publication EP4032896A1, “THIAZOLOPYRIMIDONES AS INHIBITORS OF DDR1/2 AND THERAPEUTIC USES THEREOF” (Fundación del Sector Público Estatal Centro Nacional de …, priority 2021, dated 2022)

What was measured:
DDR1 [1] = target: T1, DDR1 (Homo sapiens, UniProt Q08345); assay: LanthaScreen Eu-Kinase Binding Assay (TR-FRET tracer displacement), DDR1; conditions: catalytic domain GST Tag DDR1; Kinase Tracer 178
T1 construct: The enzymes were purchased as a catalytic domain GST Tag DDR1(#PR6913A); purchased ThermoFisher PR6913A
Source text: (§1) DDR1/2 binding assay: The binding assay relies on the LanthaScreen ™ Eu-Kinase Binding Assay (ThermoFisher Scientfic). This is a kinase assay platform based on measuring the binding and displacement of an Alexa Fluor® conjugate of an ATP-competitive kinase inhibitor or tracer at a kinase active site (Kinase Tracer 178. #PV5593). Binding of the tracer to the kinase is detected by addition of a europium (Eu)-labeled anti-GST antibody (#PV 5594) which specifically labels the kinase of interest. This binding results in a high degree of fluorescence resonance energy transfer (FRET), whereas displacement of the tracer with a kinase inhibitor results in a loss of FRET. The enzymes were purchased as a catalytic domain GST Tag DDR1(#PR6913A) and DDR2 (#PR7167A) from ThermoFisher. Assay conditions were as indicated by the kit manufacturers. Assays were performed in 384-well plates. The final read out was generated using an EnVision plate reader (Perkin-Elmer). The emission ratio was calculated by dividing the acceptor/tracer emission (665 nm) by the antibody/donor emission (615 nm). Values were plotted against the inhibitor concentration and fit to a sigmoid dose-response curve using Activity base by IDBS software.

DDR2 = target: T2, DDR2 (Homo sapiens, UniProt Q16832); assay: LanthaScreen Eu-Kinase Binding Assay (TR-FRET tracer displacement), DDR2; conditions: catalytic domain GST Tag DDR2; Kinase Tracer 178
T2 construct: The enzymes were purchased as a catalytic domain GST Tag DDR1(#PR6913A) and DDR2 (#PR7167A); purchased ThermoFisher PR7167A
T2 sequence (Q16832 563-849 limits assumed): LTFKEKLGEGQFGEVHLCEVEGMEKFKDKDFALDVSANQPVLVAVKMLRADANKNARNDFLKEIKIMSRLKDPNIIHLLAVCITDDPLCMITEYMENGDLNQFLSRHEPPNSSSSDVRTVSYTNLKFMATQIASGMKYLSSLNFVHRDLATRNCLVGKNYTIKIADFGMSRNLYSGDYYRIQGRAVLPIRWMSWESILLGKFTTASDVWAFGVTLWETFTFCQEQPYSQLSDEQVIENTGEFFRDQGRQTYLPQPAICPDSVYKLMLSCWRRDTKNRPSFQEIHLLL
Source text: as §1

DDR1 [2] = target: T3, DDR1 (Mus musculus, UniProt Q03146); assay: Cellular assay: inhibition of Collagen I-induced DDR1 autophosphorylation in HEK293T cells transiently transfected with DDR1 plasmid (Western blot); format: cell-based, human; conditions: pcDNA3.1 DDR1 WT mouse plasmid, compound 1 h, then 10 µg/mL Collagen I 1 h, P-DDR1 (Y513), read-out: pDDR1 EC50
T3 construct: expressed in transfected cells; host or cells: HEK293T
T3 sequence (Q03146 20-911): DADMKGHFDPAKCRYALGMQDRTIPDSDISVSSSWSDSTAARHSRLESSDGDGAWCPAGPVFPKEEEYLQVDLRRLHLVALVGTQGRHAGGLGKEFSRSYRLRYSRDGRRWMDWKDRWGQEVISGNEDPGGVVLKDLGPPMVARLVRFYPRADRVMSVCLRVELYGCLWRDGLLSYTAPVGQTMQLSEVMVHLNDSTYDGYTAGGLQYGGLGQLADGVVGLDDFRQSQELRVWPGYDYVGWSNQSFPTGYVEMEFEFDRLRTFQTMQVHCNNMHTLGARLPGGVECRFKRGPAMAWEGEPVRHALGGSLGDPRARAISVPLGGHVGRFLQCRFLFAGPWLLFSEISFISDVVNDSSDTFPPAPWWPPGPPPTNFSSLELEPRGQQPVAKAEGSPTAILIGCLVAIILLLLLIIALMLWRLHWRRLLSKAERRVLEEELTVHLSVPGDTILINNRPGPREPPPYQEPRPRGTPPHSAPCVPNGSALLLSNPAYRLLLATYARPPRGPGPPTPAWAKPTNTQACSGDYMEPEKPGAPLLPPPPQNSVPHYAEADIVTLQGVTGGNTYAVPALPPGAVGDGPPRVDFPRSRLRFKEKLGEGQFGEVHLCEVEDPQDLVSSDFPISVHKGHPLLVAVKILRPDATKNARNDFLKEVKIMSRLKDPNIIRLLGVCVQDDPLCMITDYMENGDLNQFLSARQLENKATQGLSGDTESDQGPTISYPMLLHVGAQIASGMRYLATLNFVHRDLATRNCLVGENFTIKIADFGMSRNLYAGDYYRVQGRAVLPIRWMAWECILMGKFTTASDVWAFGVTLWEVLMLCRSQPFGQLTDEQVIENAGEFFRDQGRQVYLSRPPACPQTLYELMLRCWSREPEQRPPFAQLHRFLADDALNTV
Procedure: DDR1/2 cellular assay: Transient transfection of HEK293T cells with DDR1 plasmid is used to study the inhibition of the autophosphorylation of DDR1 induced by Collagen I in cells. HEK293T are seeded, 6x10^5 cells per well in 6-well plates and incubated for 6 h at 37 °C, 5% CO2. Then, cells are transfected using Effectene reactive (Quiagen) with pcDNA3.1 DDR1 WT mouse plasmid. Cells are incubated with transfection complexes under normal growth conditions for 24 h. After that, medium is replaced with fresh medium and cells are incubated for an additional 18 h. Eight serial 1:3 compound dilutions are made in DMSO. The compounds are added to each well of 6 well cell plates and are incubated at 37 °C under CO2 atmosphere 1 h. DDR1's autophosphorylation is stimulated by 1h treatment with 10 µg/mL Collagen I. Then, cells are washed in PBS, lyse adding 100 µl of complete RIPA protein lysis buffer (RIPA Buffer, 1 mM DTT, 5 mM Bezamidine, 10 µg/mL Aprotinin, 10 µg/mL Leupeptin, 710 ng/mL Pepstatin A, 100 µg/mL Trypsin Inhibitor, 40 µg/mL Bestatin, completed with PhosSTOP EASYpack and complete Mini, EDTA-free) and incubated 20 minutes at 4 °C and then centrifugated. Lysates are kept at -80 °C. The protein content of the lysates is determined by DC protein assay (Biorad, Ref. 5000116). The proteins are resolved by SDS-PAGE and transferred to nitrocellulose membrane (GE Healthcare #10600003). The membranes are incubated overnight at 4 °C with antibodies specific for DDR1 (D1G6) (Cell signaling #5583), P-DDR1 (Y513) (E1N8F) (Cell Signaling # 14531) they are washed and then incubated with Alexa Fluor 680 goat anti-rabbit IgG secondary antibodies (Invitrogen, A21076). The bands are visualized and quantified using an Odyssey infrared imaging system (Li-Cor Biosciences). The percentage of DDR1 phosphorylation is finally plotted against concentration for each compound and EC50s for intracellular DDR1 inhibition are calculated using ActivityBase from IDBS.

T1 sequence (Q08345 610-905 limits assumed): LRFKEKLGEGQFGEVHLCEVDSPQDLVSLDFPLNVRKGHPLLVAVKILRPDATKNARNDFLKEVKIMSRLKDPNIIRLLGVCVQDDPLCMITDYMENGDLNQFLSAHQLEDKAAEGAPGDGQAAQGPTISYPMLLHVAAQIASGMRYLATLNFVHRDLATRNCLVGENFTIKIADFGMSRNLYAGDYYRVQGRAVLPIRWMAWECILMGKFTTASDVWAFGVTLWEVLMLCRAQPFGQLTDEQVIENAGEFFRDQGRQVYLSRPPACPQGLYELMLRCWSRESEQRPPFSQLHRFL

Compound | IC50 (DDR1 [1]) [µM] | IC50 (DDR2) [µM] | EC50 (DDR1 [2]) [µM]
COc1ccc(-c2c(-c3ccnc(Nc4ccc(N5CCN(C)CC5)cc4)n3)sc3nccc(=O)n23)cc1 [Compound 54, 3-(4-Methoxy-phenyl)-2-{2-[4-(4-methyl-piperazin-1-yl)-phenylamino]-pyrimidin-4-yl}-thiazolo[3,2-a]pyrimidin-5-one] | 0.00419 | 0.0288 | 0.0182
CN1CCN(c2ccc(Nc3nccc(-c4sc5nccc(=O)n5c4-c4ccccc4Cl)n3)cc2)CC1 [Compound 39, 3-(2-Chloro-phenyl)-2-{2-[4-(4-methyl-piperazin-1-yl)-phenylamino]-pyrimidin-4-yl}-thiazolo[3,2-a]pyrimidin-5-one] | 0.00703 | 0.0215 | 0.0353
COc1ccccc1-c1c(-c2ccnc(Nc3cccc(S(N)(=O)=O)c3)n2)sc2nccc(=O)n12 [Compound 46, 3-{4-[3-(2-Methoxy-phenyl)-5-oxo-5H-thiazolo[3,2-a]pyrimidin-2-yl]-pyrimidin-2-ylamino}-benzenesulfonamide] | 0.0053 | 0.0201 | 0.0306
COc1cccc(-c2c(-c3ccnc(Nc4ccc(N5CCN(C)CC5)cc4)n3)sc3nccc(=O)n23)c1 [Compound 51, 3-(3-Methoxy-phenyl)-2-{2-[4-(4-methyl-piperazin-1-yl)-phenylamino]-pyrimidin-4-yl}-thiazolo[3,2-a]pyrimidin-5-one] | 0.00834 | 0.0277 | 0.0192
NS(=O)(=O)c1cccc(Nc2nccc(-c3sc4nccc(=O)n4c3-c3cccc(Cl)c3)n2)c1 [Compound 40, 3-{4-[3-(3-Chloro-phenyl)-5-oxo-5H-thiazolo[3,2-a]pyrimidin-2-yl]-pyrimidin-2-ylamino}-benzenesulfonamide] | 0.0164 | 0.0616 | 0.113
O=c1ccnc2sc(-c3ccnc(Nc4cccc(N5CCN(CCO)CC5)c4)n3)c(-c3ccccc3Cl)n12 [Compound 38, 3-(2-Chloro-phenyl)-2-(2-{3-[4-(2-hydroxy-ethyl)-piperazin-1-yl]-phenylamino}-pyrimidin-4-yl)-thiazolo[3,2-a]pyrimidin-5-one] | 0.00422 | 0.0166 | 0.0281
O=c1ccnc2sc(-c3ccnc(Nc4cccc(N5CCN(CCO)CC5)c4)n3)c(-c3ccc(F)cc3)n12 [Compound 58, 3-(4-Fluoro-phenyl)-2-(2-{3-[4-(2-hydroxy-ethyl)-piperazin-1-yl]-phenylamino}-pyrimidin-4-yl)-thiazolo[3,2-a]pyrimidin-5-one] | 0.0064 | 0.0305 | 0.028
COc1cccc(-c2c(-c3ccnc(Nc4cccc(S(N)(=O)=O)c4)n3)sc3nccc(=O)n23)c1 [Compound 49, 3-{4-[3-(3-Methoxy-phenyl)-5-oxo-5H-thiazolo[3,2-a]pyrimidin-2-yl]-pyrimidin-2-ylamino}-benzenesulfonamide] | 0.0209 | 0.103 | 0.0998

The next lines start with the values.

IC50 (DDR1 [1]) [µM] | IC50 (DDR2) [µM] | EC50 (DDR1 [2]) [µM] | Compound
0.0644 | 0.292 |  | Cc1nc2sc(-c3ccnc(Nc4cccc(N5CCN(CCO)CC5)c4)n3)c(-c3ccccc3)n2c(=O)c1C(C)C [Compound 76, 2-(2-{3-[4-(2-Hydroxy-ethyl)-piperazin-1-yl]-phenylamino}-pyrimidin-4-yl)-6-isopropyl-7-methyl-3-phenyl-thiazolo[3,2-a]pyrimidin-5-one]
0.0129 | 0.0408 | 0.0632 | NS(=O)(=O)c1cccc(Nc2nccc(-c3sc4nccc(=O)n4c3-c3ccc(Cl)c(Cl)c3)n2)c1 [Compound 61, 3-{4-[3-(3,4-Dichloro-phenyl)-5-oxo-5H-thiazolo[3,2-a]pyrimidin-2-yl]-pyrimidin-2-ylamino}-benzenesulfonamide]
0.0255 | 0.0694 | 0.0468 | CCc1c(C)nc2sc(-c3ccnc(Nc4cccc(N5CCN(CCO)CC5)c4)n3)c(-c3ccccc3)n2c1=O [Compound 77, 6-Ethyl-2-(2-{3-[4-(2-hydroxy-ethyl)-piperazin-1-yl]-phenylamino}-pyrimidin-4-yl)-7-methyl-3-phenyl-thiazolo[3,2-a]pyrimidin-5-one]
0.0129 | 0.0116 | 0.0395 | CCc1cc(=O)n2c(-c3ccccc3)c(-c3ccnc(Nc4cccc(N5CCN(CCO)CC5)c4)n3)sc2n1 [Compound 74, 7-Ethyl-2-(2-{3-[4-(2-hydroxy-ethyl)-piperazin-1-yl]-phenylamino}-pyrimidin-4-yl)-3-phenyl-thiazolo[3,2-a]pyrimidin-5-one]
0.00906 | 0.0269 | 0.059 | Cc1cc(=O)n2c(-c3ccccc3)c(-c3ccnc(Nc4cccc(N5CCN(CCO)CC5)c4)n3)sc2n1 [Compound 72, 2-(2-{3-[4-(2-Hydroxy-ethyl)-piperazin-1-yl]-phenylamino}-pyrimidin-4-yl)-7-methyl-3-phenyl-thiazolo[3,2-a]pyrimidin-5-one]
0.0125 | 0.0333 |  | CC(C)c1cc(=O)n2c(-c3ccccc3)c(-c3ccnc(Nc4cccc(N5CCN(CCO)CC5)c4)n3)sc2n1 [Compound 73, 2-(2-{3-[4-(2-Hydroxy-ethyl)-piperazin-1-yl]-phenylamino}-pyrimidin-4-yl)-7-isopropyl-3-phenyl-thiazolo[3,2-a]pyrimidin-5-one]
6.88 | 8.62 |  | COc1cnc(Nc2cccc(S(N)(=O)=O)c2)nc1-c1sc2nccc(=O)n2c1-c1ccccc1 [Compound 69, 3-[5-Methoxy-4-(5-oxo-3-phenyl-5H-thiazolo[3,2-a]pyrimidin-2-yl)-pyrimidin-2-ylamino]-benzenesulfonamide]
